Assay results: patent publication US6403617B1, “Diaminopyridine-containing thiourea inhibitors of herpes viruses” (American Home Products Corp., priority 1998, dated 2002)

Assays:
HCMV wild-type = test: HCMV yield assay; assay type: cell-based, Human Cytomegalovirus; conditions: human foreskin fibroblasts, reduction of virus yield by 50%
Method: Yield assay. Monolayer cultures of human foreskin fibroblasts are infected with HCMV wild-type, typically at a multiplicity of infection equal to 0.2, in the presence of inhibitor compound (varying concentrations). At three days post-infection, total virus produced in these cultures (i.e. virus yield) is assessed by harvesting and titering the virus in 12-well plates of cultured human foreskin fibroblasts (done in the absence of inhibitor). Plaques are quantified at 2 weeks post-infection. An inhibitor of HCMV is identified by the reduction in titer of virus yield in the presence, compared to the titer in the absence of compound. In this assay, the relative anti-HCMV activity of an inhibitor is typically determined by calculating the IC50 or IC90 value, that is, the amount of compound required to reduce the virus yield by 50% or 90%, respectively. Table I describes IC50 data for compounds tested against HCMV.

HSV-1 = test: HSV Antiviral (ELISA) Assay; assay type: cell-based, herpes simplex virus type 1; conditions: Vero cells, HSV-1, about 24 hours post-infection
Method: Vero cells (ATCC #CCL-81) are plated on 96-well tissue cultugre plates at 3.5×10^4 cells per 100 μl tissue culture DMEM (Dulbecco's modified Eagle media) supplemented with 2% fetal bovine serum (FBS) in each well. After overnight incubation @ 37° C. (in 5% CO2) and 30 minutes prior to infection with HSV-1 (multiplicity of infection equal to 0.006), cells are either untreated, or treated with test compound (multiple concentrations) or reference standard drug control. After approximately 24 hours post-infection incubation @ 37° C. (in 5% CO2), cells are fixed for ELISA assay. The primary antibody is murine anti-HSV glycoprotein D monoclonal primary antibody and the secondary antibody is goat anti-mouse IgG linked to β-galactosidase. Thus the extent of viral replication is determined by assessing β-galactosidase activity by quantifying the generation of the 4-methyl umbelliferone fluorescent cleavage product after addition of the methyl umbelliferyl-β-D-galactoside (Sigma #M1633) substrate on a microfluorimeter (365 nm for excitation and 450 nm for emission). Antiviral activity (IC50) of the test compound is determined by comparing the flourescence obtained in absence of compound to that obtained in the presence of compound.

VZV strain Ellen = test: VZV Antiviral (ELISA) Assay; assay type: cell-based, varicella-zoster virus; conditions: human foreskin fibroblast cells, three days
Method: For the generation of stock VZV to be used in the assay, VZV strain Ellen (ATCC #VR-1367) is used to infect human foreskin fibroblast (HFF) cells at low multiplicity (less than 0.1) and incubated overnight at 37° C. in 5% CO2. After the overnight incubation, the mixture of uninfected and VZV-infected HFF infected cells are then harvested and added to each well of 96-well plates (3.5×10^4 cells in 100 μl DMEM supplemented with 2% FBS) which contain test compound or the reference standard drug control (in 100 μl DMEM supplemented with 2% FBS per well). These cells are incubated for three days at 37° C. in 5% CO2, then fixed for ELISA assay. The primary antibody is murine anti-VZV glycoprotein II monoclonal antibody (Applied Biosystems, Inc. #13-145-100) and the secondary antibody is goat anti-mouse IgG linked to β-galactosidase. Thus the extent of viral replication is determined by assessing β-galactosidase activity by quantifying the generation of the 4-methyl umbelliferone fluorescent cleavage product after addition of the methyl umbelliferyl-β-D-galactoside (Sigma #M1633) substrate on a microfluorimeter (365 nm for excitation and 450 nm for emission). Antiviral activity (IC50) of the test compound is determined by comparing the flourescence obtained in absence of compound to that obtained in the presence of compound.

Row | Compound | IC50 (HCMV wild-type; Human betaherpesvirus 5, Fibroblast, read-out: IC50 (ug/ml) HCMV) | IC50 (HSV-1; Human alphaherpesvirus 1, read-out: IC50 (ug/ml) HSV) | inhibition at 10 µg/mL (VZV strain Ellen; Human alphaherpesvirus 3, 72 h, read-out: % inhibition 10 ug/ml VZV, 10 ug/ml) | IC50 (VZV strain Ellen; Human alphaherpesvirus 3, 72 h, read-out: IC50 (ug/ml) VZV) | IC50 (ug/ml) HCMV (HCMV wild-type) | IC50 (ug/ml) HSV (HSV-1) | % inhibition 10 ug/ml VZV (VZV strain Ellen; 10 ug/ml) | IC50 (ug/ml) VZV (VZV strain Ellen)
1 | O=C(Nc1ccc(NC(=S)Nc2cc(Cl)cc(Cl)c2)cn1)c1csnn1 [Example 515, [1,2,3]Thiadiazole-4-carboxylic acid {5-[3-(3,5-dichloro-phenyl)-thioureido]-pyridin-2-yl}-amide] | > 10 µg/mL | > 10 µg/mL | 30% | > 10 µg/mL |  |  |  | 
2 | Pyridine-2-carboxylic acid {6-[3-(5-chloro-2,4-dimethoxy-phenyl)-thioureido]-pyridin-3-yl}-amide [Example 506] |  |  |  |  | >10 µg/mL | >10 µg/mL | 68% | >10 µg/mL
